Non-standard residues stand in square brackets, D forms with d. No end group written: not given here. Aun = NCCCCCCCCCCC(=O)O
T1: CXCR3 receptor (CXCR-3/300-19 cells) (Homo sapiens, UniProt P49682)
T1 construct: expressed in transfected cells; host or cells: 300-19 mouse pre-B lymphocytes (CXCR-3/300-19)
T1 sequence (P49682 1-368): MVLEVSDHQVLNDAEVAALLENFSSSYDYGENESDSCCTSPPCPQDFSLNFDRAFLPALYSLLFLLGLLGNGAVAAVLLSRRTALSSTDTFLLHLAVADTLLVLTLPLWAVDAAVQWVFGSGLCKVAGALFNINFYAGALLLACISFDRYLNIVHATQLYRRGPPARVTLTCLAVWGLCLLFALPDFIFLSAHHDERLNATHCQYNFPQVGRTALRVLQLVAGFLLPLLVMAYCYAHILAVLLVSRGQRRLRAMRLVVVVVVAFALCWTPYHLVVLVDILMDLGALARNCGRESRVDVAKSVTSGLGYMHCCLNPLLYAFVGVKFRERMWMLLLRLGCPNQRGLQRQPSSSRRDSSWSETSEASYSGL

B1: rBRAK: recombinant BRAK (CXCL14 chemokine) (protein, UniProt O95715 35-111, looked up)
C-X-C motif chemokine 14: SKCKCSRKGPKIRYSDVKKLEMKPKYPHCEEKMVIITTKSVSRYRGQEHCLHPKLQSTKRFIKWYNAWNEKRRVYEE

How the values were obtained:
[1] = test system: SUP-T1 cells; type: cell-based, human
Experimental: The experiments include contacting an SDF-1 mimetic with a cell. For the experiments, SUP-T1 cells (ATCC) were plated on the day of the experiment using 1.2×10^5 cells per well in 96-well black-wall/clear-bottom plates coated with poly-D-lysine (BD Biosciences) and loaded using a fluorescent calcium indicator. The indicator used was from a FLIPR Calcium 3 assay kit, component A, (Molecular Probes) and was loaded in the cell for 1 hr at 37° C. The intracellular calcium mobilization in response to the appropriate analogue was measured at 37° C. by monitoring the fluorescence as a function of time simultaneously in all the wells using a Flexstation Fluorometric Imaging Plate Reader (Molecular Devices).

[2] = target: T1, CXCR3 receptor (CXCR-3/300-19 cells); experiment: [Ca2+]i mobilization by IP-10 analogs, FLIPR Calcium 3 kit, CXCR-3/300-19 cells; type: cell-based; conditions: for calcium mobilization activity of the cells: CXCR-3/300-19 cells
Experimental: Binding and Calcium Mobilization: Suspensions of CXCR-3/300-19 cells were used to assess binding and intracellular calcium mobilization induced by IP-10 analogs. These are mouse pre-B lymphocytes transfected with the CXCR3 receptor, (Moser, et al). The cells were washed in RPMI media and resuspended in RPMI media supplemented with 10% FCS, then plated at 1.2×10^5 cells per well of 96-well black wall/clear bottom plates coated with poly-D-lysine (Becton Dickinson) and loaded with 100 uL fluorescent calcium indicator FLIPR Calcium 3 assay kit component A (Molecular Probes) for 1 hr at 37° C. The cells on the plates were then spun at 1000 rpm for 15 minutes at room temperature.
Each of the sequences successfully bound to the cellular receptors. The intracellular calcium mobilization in response to 25 uL (0-100000 nM final concentrations) of the appropriate and various concentrations of analogue was measured at 37° C. by monitoring fluorescence as a function of time in all the wells using the Flexstation Fluorometric Imaging Plate Reader (Molecular Devices). All analogues were run simultaneously with rhIP-10 (R&D Systems) as the standard. Table 7 provides the dosage effect of the binding of each of the IP-10 analogs on the calcium mobilization activity of the cells.

[3] = test system: high affinity receptors on human immature monocyte-derived dendritic cells (iDCs); conditions: cited from earlier work
[4] = test system: endothelial cell chemotaxis; conditions: in vitro; cited from earlier work

Row | Molecule | EC50 [1] | also measured
1 | KPVSLSYRAPFRFFKGKGLKWIQEYLEKALN-NH2 [SEQ ID NO: 11] | 228 nM | 
2 | KPVSLSYRAPFRFFRRRGLKWIQEYLEKALN-NH2 [SEQ ID NO: 28] | 597 nM | 
3 | KPVSLSYRAPFRFFKKKKLKWIQEYLEKALN-NH2 (C-terminus assumed) [SEQ ID NO: 17] | 316 nM | 
4 | KPVSLSYRAPFRFFKKGGLKWIQEYLEKALN-NH2 (C-terminus assumed) [SEQ ID NO: 7] | 281 nM | 
5 | KPVSLSYRAPFRFFGGRRLKWIQEYLEKALN-NH2 [SEQ ID NO: 24] | 173 nM | 
6 | KPVSLSYRAPFRFFGKKKLKWIQEYLEKALN-NH2 (C-terminus assumed) [SEQ ID NO: 14] | 92 nM | 
7 | KPVSLSYRAPFRFFGKKGLKWIQEYLEKALN-NH2 (C-terminus assumed) [SEQ ID NO: 8] | 304 nM | 
8 | KPVSLSYRAPFRFFGGGRLKWIQEYLEKALN-NH2 (C-terminus assumed) [SEQ ID NO: 21] | 361 nM | 
9 | KPVSLSYRAPFRFFGGKGLKWIQEYLEKALN-NH2 [SEQ ID NO: 5] | 211 nM | 
10 | KPVSLSYRAPFRFFGRGRLKWIQEYLEKALN-NH2 [SEQ ID NO: 27] | 4320 nM | 
11 | KPVSLSYRAPFRFFRGRRLKWIQEYLEKALN-NH2 [SEQ ID NO: 30] | 178 nM | 
12 | KPVSLSYRAPFRFFRRRRLKWIQEYLEKALN-NH2 [SEQ ID NO: 32] | 1120 nM | 
13 | acetylated-IP-10-(1-16)-[linker]-IP-10-(66-78) (Ac-VPLSRTVRCTCISISN[Aun]LKAVSKEMSKRSP; cysteine pairing not given here) [SEQ ID NO:1641, IP-10 analog, numbering of U.S. App; 11/590,210] |  | increase in intracellular calcium mobilization ([2]; 100 μM (FIG. 1), three independent experiments): ~500%; calcium mobilization activity of the cells ([2]; dosage 1.2 μM): 12.6%; calcium mobilization activity of the cells ([2]; dosage 3.7 μM): 12.7%; calcium mobilization activity of the cells ([2]; dosage 11.1 μM): 14.1%; calcium mobilization activity of the cells ([2]; dosage 33.3 μM): 20%; calcium mobilization activity of the cells ([2]; dosage 100 μM): 52.9%
14 | KPVSLSYRAPFRFFRRGRLKWIQEYLEKALN-NH2 [SEQ ID NO: 31] | 709 nM | 
15 | KPVSLSYRAPFRFFRGRGLKWIQEYLEKALN-NH2 [SEQ ID NO: 26] | 248 nM | 
16 | KPVSLSYRAPFRFFRGGGLKWIQEYLEKALN-NH2 (C-terminus assumed) [SEQ ID NO: 18] | 219 nM | 

Row | Molecule | EC50 [1] | also measured
17 | KPVSLSYRAPFRFFKGGKLKWIQEYLEKALN-NH2 (C-terminus assumed) [SEQ ID NO: 10] | 233 nM | 
18 | KPVSLSYRAPFRFFRRGGLKWIQEYLEKALN-NH2 (C-terminus assumed) [SEQ ID NO: 22] | 171 nM | 
19 | KPVSLSYRAPFRFFKKGKLKWIQEYLEKALN-NH2 (C-terminus assumed) [SEQ ID NO: 16] | 140 nM | 
20 | KPVSLSYRAPFRFFRGGRLKWIQEYLEKALN-NH2 [SEQ ID NO: 25] | 132 nM | 
21 | KPVSLSYRAPFRFFGRRRLKWIQEYLEKALN-NH2 [SEQ ID NO: 29] | 1870 nM | 
22 | KPVSLSYRAPFRFFKGKKLKWIQEYLEKALN-NH2 (C-terminus assumed) [SEQ ID NO: 15] | 157 nM | 
23 | KPVSLSYRAPFRFFGRGGLKWIQEYLEKALN-NH2 (C-terminus assumed) [SEQ ID NO: 19] | 253 nM | 
24 | KPVSLSYRAPFRFFGGRGLKWIQEYLEKALN-NH2 (C-terminus assumed) [SEQ ID NO: 20] | 307 nM | 
25 | KPVSLSYRAPFRFFGRRGLKWIQEYLEKALN-NH2 [SEQ ID NO: 23] | 202 nM | 
26 | KPVSLSYRAPFRFFGGGKLKWIQEYLEKALN-NH2 (C-terminus assumed) [SEQ ID NO: 6] | 283 nM | 
27 | KPVSLSYRAPFRFFGKGGLKWIQEYLEKALN-NH2 (C-terminus assumed) [SEQ ID NO: 4] | 312 nM | 
28 | KPVSLSYRAPFRFFKKKGLKWIQEYLEKALN-NH2 (C-terminus assumed) [SEQ ID NO: 13] | 137 nM | 
29 | KPVSLSYRAPFRFFGGKKLKWIQEYLEKALN-NH2 (C-terminus assumed) [SEQ ID NO: 9] | 225 nM | 
30 | KPVSLSYRAPFRFFGKGKLKWIQEYLEKALN-NH2 (C-terminus assumed) [SEQ ID NO: 12] | 307 nM | 
31 | B1 |  | Kd [3]: 2 nM; concentration blocking endothelial cell chemotaxis (as low as) [4]: 1 nmol/L
